# Assay: Test Example 2: identification of decomposition products of compound (I) by mass spectra
# Assay type: physicochemical
# Settings: composition with compound (I-A), compound (I-B), dicamba diglycolamine salt, acetic acid and potassium hydroxide, 50° C. for 8 weeks
# Experimental: Test Example 2: Identification of Decomposition Product of Compound (I)
# Mass spectra were measured for compositions containing the compound (I-A), the compound (I-B), a dicamba diglycolamine salt, acetic acid and potassium hydroxide, which were left to stand in an incubator at 50° C. for 8 weeks.
# The decomposition product a is obtained as a result of ring-opening of a uracil ring due to the cleavage of a C—N bond (bond between an N atom at the 3-position and a C atom at the 4-position) included in an imide structure constituting a uracil ring structure of the compound (I-A), and a bond between an N atom at the 1-position and a C atom at the 6-position. The decomposed product b is obtained as a result of the addition of diglycolamine (DGA) to the terminal ethyl ester moiety, in addition to the ring-opening of the uracil ring of the compound (I-A).
row,SMILES,decomposition products confirmed
1,C#CCN1C(=O)COc2cc(F)c(N3C(=O)C4=C(CCCC4)C3=O)cc21 [compound (I-B)],decomposition product c
2,CCOC(=O)COc1ncccc1Oc1cc(-n2c(=O)cc(C(F)(F)F)n(C)c2=O)c(F)cc1Cl [compound (I-A)],decomposition products a and b
